Values joined by “and” are separate entries in the source; they are usually repeats but may differ in a detail not shown here. Equal entries are not always repeated. Active and inactive are the calls of the source. The rule behind the calls is not given here.
Tested on: rodent lifetime carcinogenesis bioassay, tumor incidence TD50
Experiment: chronic cancer bioassays in animals – CPDB, compiled studies (AID 1745844)
[1] = rat, strain Fischer 344, females, by gavage, site: any site (literature study), lesion: several types, types named in the paper, dosed 103 weeks, study length 104 weeks
[2] = rat, strain Fischer 344, males, by gavage, site: any site (literature study), lesion: several types, types named in the paper, dosed 103 weeks, study length 104 weeks
[3] = mouse, strain ddNi, males, in feed, site: liver, lesion: adenoma-like tumor, dosed 160 weeks, study length 160 weeks

SMILES: CN(C)c1ccccc1
- TD50 (mouse, strain B6C3F1, females, by gavage, site: any site (literature study), lesion: several types, types named in the paper, dosed 103 weeks, study length 104 weeks): 108 mg/kg/day
- TD50 (mouse, strain B6C3F1, females, by gavage, site: forestomach, lesion: squamous-cell papilloma, dosed 103 weeks, study length 104 weeks): 99.3 mg/kg/day
- TD50 (mouse, strain B6C3F1, females, by gavage, site: liver, lesion: hepatocellular adenoma + hepatocellular carcinoma + neoplastic nodule, dosed 103 weeks, study length 104 weeks): 163 mg/kg/day
- TD50 (mouse, strain B6C3F1, females, by gavage, site: lung, lesion: alveolar/bronchiolar adenoma + alveolar/bronchiolar carcinoma, dosed 103 weeks, study length 104 weeks): 276 mg/kg/day
- TD50 (mouse, strain B6C3F1, males, by gavage, site: any site (literature study), lesion: several types, types named in the paper, dosed 103 weeks, study length 104 weeks): 489 mg/kg/day (inactive)
- TD50 (mouse, strain B6C3F1, males, by gavage, site: liver, lesion: hepatocellular adenoma + hepatocellular carcinoma + neoplastic nodule, dosed 103 weeks, study length 104 weeks): 216 mg/kg/day
- TD50 (mouse, strain B6C3F1, males, by gavage, site: lung, lesion: alveolar/bronchiolar adenoma + alveolar/bronchiolar carcinoma, dosed 103 weeks, study length 104 weeks): 102 mg/kg/day
- carcinogen call [1]: negative (inactive)
- TD50 [2]: 93.2 mg/kg/day
- TD50 (rat, strain Fischer 344, males, by gavage, site: splenic red pulp, lesion: osteosarcoma + sarcoma, NOS, dosed 103 weeks, study length 104 weeks): 125 mg/kg/day
- TD50 (rat, strain Fischer 344, males, by gavage, site: splenic red pulp, lesion: sarcoma, NOS, dosed 103 weeks, study length 104 weeks): 175 mg/kg/day

SMILES: C1N2CN3CN1CN(C2)C3
- carcinogen call (mouse, strain C3Hf/Dp, females, in drinking water, site: any site (literature study), lesion: several types, types named in the paper, dosed 60 weeks, study length 105 weeks): negative (inactive)
- TD50 (mouse, strain C3Hf/Dp, females, in drinking water, site: liver, lesion: angioma, dosed 60 weeks, study length 105 weeks): 51900 mg/kg/day (inactive)
- carcinogen call (mouse, strain C3Hf/Dp, females, in drinking water, site: liver, lesion: hepatoma, dosed 60 weeks, study length 105 weeks): negative (inactive)
- carcinogen call (mouse, strain C3Hf/Dp, females, in drinking water, site: lung, lesion: adenoma, dosed 60 weeks, study length 105 weeks): negative (inactive)
- carcinogen call (mouse, strain C3Hf/Dp, males, in drinking water, site: any site (literature study), lesion: several types, types named in the paper, dosed 60 weeks, study length 105 weeks): negative (inactive)
- TD50 (mouse, strain C3Hf/Dp, males, in drinking water, site: liver, lesion: angioma, dosed 60 weeks, study length 105 weeks): 32300 mg/kg/day (inactive)
- carcinogen call (mouse, strain C3Hf/Dp, males, in drinking water, site: liver, lesion: hepatoma, dosed 60 weeks, study length 105 weeks): negative (inactive)
- TD50 (mouse, strain C3Hf/Dp, males, in drinking water, site: lung, lesion: adenoma, dosed 60 weeks, study length 105 weeks): 293000 mg/kg/day (inactive)
- TD50 (mouse, strain CTM, females, in drinking water, site: Harderian gland, lesion: one or several types, types not named, dosed 50 weeks, study length 100 weeks): 26300 mg/kg/day (inactive)
- TD50 (mouse, strain CTM, females, in drinking water, site: any site (literature study), lesion: several types, types named in the paper, dosed 50 weeks, study length 100 weeks): 11600 mg/kg/day (inactive)
- carcinogen call (mouse, strain CTM, females, in drinking water, site: liver, lesion: angioma, dosed 50 weeks, study length 100 weeks): negative (inactive)
- carcinogen call (mouse, strain CTM, females, in drinking water, site: lung, lesion: adenoma, dosed 50 weeks, study length 100 weeks): negative (inactive)
- TD50 (mouse, strain CTM, females, in drinking water, site: several sites, sites named in the paper, lesion: one or several types, types not named, dosed 50 weeks, study length 100 weeks): 20900 mg/kg/day (inactive)
- carcinogen call (mouse, strain CTM, males, in drinking water, site: any site (literature study), lesion: several types, types named in the paper, dosed 50 weeks, study length 100 weeks): negative (inactive)
- carcinogen call (mouse, strain CTM, males, in drinking water, site: liver, lesion: angioma, dosed 50 weeks, study length 100 weeks): negative (inactive)
- carcinogen call (mouse, strain CTM, males, in drinking water, site: lung, lesion: adenoma, dosed 50 weeks, study length 100 weeks): negative (inactive)
- carcinogen call (mouse, strain SWR, females, in drinking water, site: any site (literature study), lesion: several types, types named in the paper, dosed 60 weeks, study length 103 weeks): negative (inactive)
- carcinogen call (mouse, strain SWR, females, in drinking water, site: liver, lesion: one or several types, types not named, dosed 60 weeks, study length 103 weeks): negative (inactive)
- carcinogen call (mouse, strain SWR, females, in drinking water, site: lung, lesion: adenoma, dosed 60 weeks, study length 103 weeks): negative (inactive)
- carcinogen call (mouse, strain SWR, males, in drinking water, site: any site (literature study), lesion: several types, types named in the paper, dosed 60 weeks, study length 103 weeks): negative (inactive)
- carcinogen call (mouse, strain SWR, males, in drinking water, site: liver, lesion: angioma, dosed 60 weeks, study length 103 weeks): negative (inactive)
- carcinogen call (mouse, strain SWR, males, in drinking water, site: lung, lesion: adenoma, dosed 60 weeks, study length 103 weeks): negative (inactive)
- carcinogen call (rat, strain Wistar, females, in drinking water, site: any site (literature study), lesion: several types, types named in the paper, dosed 104 weeks, study length 146 weeks): negative (inactive)
- carcinogen call (rat, strain Wistar, females, in drinking water, site: liver, lesion: one or several types, types not named, dosed 104 weeks, study length 146 weeks): negative (inactive)
- carcinogen call (rat, strain Wistar, males, in drinking water, site: any site (literature study), lesion: several types, types named in the paper, dosed 104 weeks, study length 146 weeks): negative (inactive)
- carcinogen call (rat, strain Wistar, males, in drinking water, site: liver, lesion: liver-cell carcinoma, dosed 104 weeks, study length 146 weeks): negative (inactive)

SMILES: Cc1cc(O)c2c(c1O)C(=O)C13C(=C2O)C(=O)C2C(O)C1C1C(O)C3C(=O)C3=C(O)c4c(O)cc(C)c(O)c4C(=O)C321 (centres undefined)
- TD50 (mouse, strain ddNi, females, in feed, site: liver, lesion: liver-cell adenoma, dosed 160 weeks, study length 160 weeks): 122 mg/kg/day
- TD50 (mouse, strain ddNi, females, in feed, site: liver, lesion: liver-cell carcinoma, dosed 160 weeks, study length 160 weeks): 248 mg/kg/day
- TD50 (mouse, strain ddNi, females, in feed, site: liver, lesion: several types, types named in the paper, dosed 160 weeks, study length 160 weeks): 79.4 mg/kg/day
- TD50 [3]: 113 mg/kg/day
- carcinogen call [3]: positive
- TD50 (mouse, strain ddNi, males, in feed, site: liver, lesion: hepatoma, dosed 160 weeks, study length 160 weeks): 89.5 mg/kg/day and 74.3 mg/kg/day and 113 mg/kg/day
- TD50 (mouse, strain ddNi, males, in feed, site: liver, lesion: liver-cell adenoma, dosed 160 weeks, study length 160 weeks): 83.7 mg/kg/day and 25.1 mg/kg/day and 231 mg/kg/day
- TD50 (mouse, strain ddNi, males, in feed, site: liver, lesion: liver-cell carcinoma, dosed 160 weeks, study length 160 weeks): 332 mg/kg/day
- TD50 (mouse, strain ddNi, males, in feed, site: liver, lesion: several types, types named in the paper, dosed 160 weeks, study length 160 weeks): 14.8 mg/kg/day

SMILES: C=CCOC(=O)c1ccccc1C(=O)OCC=C
- TD50 (mouse, strain B6C3F1, females, by gavage, site: any site (literature study), lesion: several types, types named in the paper, dosed 103 weeks, study length 106 weeks): 10100 mg/kg/day
- TD50 (mouse, strain B6C3F1, females, by gavage, site: forestomach, lesion: papilloma, NOS, dosed 103 weeks, study length 106 weeks): 2730 mg/kg/day
- TD50 (mouse, strain B6C3F1, females, by gavage, site: liver, lesion: hepatocellular adenoma + hepatocellular carcinoma + neoplastic nodule, dosed 103 weeks, study length 106 weeks): 2930 mg/kg/day
- TD50 (mouse, strain B6C3F1, females, by gavage, site: lung, lesion: alveolar/bronchiolar adenoma + alveolar/bronchiolar carcinoma, dosed 103 weeks, study length 106 weeks): 4180 mg/kg/day
- TD50 (mouse, strain B6C3F1, males, by gavage, site: all sites, lesion: malignant lymphoma, NOS, dosed 103 weeks, study length 106 weeks): 816 mg/kg/day
- TD50 (mouse, strain B6C3F1, males, by gavage, site: any site (literature study), lesion: several types, types named in the paper, dosed 103 weeks, study length 106 weeks): 717 mg/kg/day
- TD50 (mouse, strain B6C3F1, males, by gavage, site: forestomach, lesion: papilloma, NOS, dosed 103 weeks, study length 106 weeks): 2460 mg/kg/day
- TD50 (mouse, strain B6C3F1, males, by gavage, site: liver, lesion: hepatocellular adenoma + hepatocellular carcinoma + neoplastic nodule, dosed 103 weeks, study length 106 weeks): 6680 mg/kg/day
- TD50 (mouse, strain B6C3F1, males, by gavage, site: liver, lesion: hepatocellular adenoma, dosed 103 weeks, study length 106 weeks): 2450 mg/kg/day
- TD50 (mouse, strain B6C3F1, males, by gavage, site: lung, lesion: alveolar/bronchiolar adenoma + alveolar/bronchiolar carcinoma, dosed 103 weeks, study length 106 weeks): 8520 mg/kg/day
- TD50 (rat, strain Fischer 344, females, by gavage, site: all sites, lesion: mononuclear-cell leukemia, dosed 103 weeks, study length 104 weeks): 138 mg/kg/day
- TD50 [1]: 163 mg/kg/day
- TD50 [2]: 2990 mg/kg/day (inactive)

SMILES: Cc1ccc(OP(=O)(Oc2ccc(C)cc2)Oc2ccc(C)cc2)cc1
- carcinogen call (mouse, strain B6C3F1, females, in feed, site: any site (literature study), lesion: several types, types named in the paper, dosed 104 weeks, study length 105 weeks): negative (inactive)
- TD50 (mouse, strain B6C3F1, females, in feed, site: lung, lesion: alveolar/bronchiolar adenoma + alveolar/bronchiolar carcinoma, dosed 104 weeks, study length 105 weeks): 2310 mg/kg/day
- TD50 (mouse, strain B6C3F1, males, in feed, site: Harderian gland, lesion: adenoma, dosed 104 weeks, study length 105 weeks): 184 mg/kg/day (inactive)
- TD50 (mouse, strain B6C3F1, males, in feed, site: any site (literature study), lesion: several types, types named in the paper, dosed 104 weeks, study length 105 weeks): 159 mg/kg/day
- TD50 (mouse, strain B6C3F1, males, in feed, site: liver, lesion: hepatocellular adenoma + hepatoblastoma + hepatocellular carcinoma, dosed 104 weeks, study length 105 weeks): 968 mg/kg/day
- TD50 (mouse, strain B6C3F1, males, in feed, site: lung, lesion: alveolar/bronchiolar adenoma + alveolar/bronchiolar carcinoma, dosed 104 weeks, study length 105 weeks): 187 mg/kg/day
- TD50 (rat, strain Fischer 344, females, in feed, site: all sites, lesion: mononuclear-cell leukemia, dosed 104 weeks, study length 104 weeks): 35 mg/kg/day (inactive)
- TD50 (rat, strain Fischer 344, females, in feed, site: any site (literature study), lesion: several types, types named in the paper, dosed 104 weeks, study length 104 weeks): 21.6 mg/kg/day
- carcinogen call (rat, strain Fischer 344, males, in feed, site: any site (literature study), lesion: several types, types named in the paper, dosed 104 weeks, study length 104 weeks): negative (inactive)
- TD50 (rat, strain Fischer 344, males, in feed, site: liver, lesion: hepatocellular adenoma + hepatoblastoma + hepatocellular carcinoma, dosed 104 weeks, study length 104 weeks): 143 mg/kg/day

— PubChem BioAssay AID1745844 (Carcinogenic Potency Database (CPDB), 2022)
